Assay results reported in patent US20260015325A1, “ALKOXY HETEROARYL- CARBOXAMIDE OR THIOAMIDE COMPOUNDS” (SYNGENTA CROP PROTECTION AG, priority 2022, published 2026).

What was measured:
Format in all cases: in vivo
[1] = system: Chilo suppressalis (Striped Rice Stemborer); assay: Chilo suppressalis (Striped Rice Stemborer), artificial diet; settings: 144 h, application rate of 200 ppm, L2 larvae on treated artificial diet, 6 days after infestation, read-out: control (at least one of mortality, anti-feedant effect, growth inhibition)
Experimental: Example B2: Chilo suppressalis (Striped Rice Stemborer)
24-well microtiter plates with artificial diet were treated with aqueous test solutions prepared from 10′000 ppm DMSO stock solutions by pipetting. After drying, the plates were infested with L2 larvae (6-8 per well). The samples were assessed for mortality, anti-feeding effect, and growth inhibition in comparison to untreated samples 6 days after infestation. Control of Chilo suppressalis by a test sample is given when at least one of the categories mortality, anti-feedant effect, and growth inhibition is higher than the untreated sample.

[2] = system: Myzus persicae (Green Peach Aphid); assay: Myzus persicae (Green Peach Aphid): intrinsic activity, sucrose solution; settings: 120 h, test rate of 12 ppm, intrinsic, mixed with sucrose solution under Parafilm, 5 days after infestation, read-out: mortality
In short: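 Compounds from 10′000 ppm DMSO stocks mixed with sucrose solution in wells sealed with Parafilm; aphid-infested pea seedlings placed on the Parafilm and the assembly inverted so aphids feed through the membrane. Mortality assessed 5 days after infestation.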

[3] = system: Bemisia tabaci (Cotton White Fly); assay: Bemisia tabaci (Cotton White Fly): feeding/contact activity, cotton leaf discs; settings: foliar, 144 h, application rate of 200 ppm, adult white flies on sprayed cotton leaf discs, 6 days after incubation, read-out: mortality
Experimental: Example B1: Bemisia tabaci (Cotton White Fly): Feeding/Contact Activity
Cotton leaf discs were placed on agar in 24-well microtiter plates and sprayed with aqueous test solutions prepared from 10′000 ppm DMSO stock solutions. After drying the leaf discs were infested with adult white flies. The samples were checked for mortality 6 days after incubation.

[4] = system: Tetranychus urticae (Two-Spotted Spider Mite); assay: whole plant or invertebrate; settings: foliar, 192 h, application rate of 200 ppm, mixed population (mobile stages) on sprayed bean leaf discs, 8 days after infestation, read-out: mortality
Experimental: Example B11: Tetranychus urticae (Two-Spotted Spider Mite): Feeding/Contact Activity
Bean leaf discs on agar in 24-well microtiter plates were sprayed with aqueous test solutions prepared from 10′000 ppm DMSO stock solutions. After drying the leaf discs were infested with a mite population of mixed ages. The samples were assessed for mortality on mixed population (mobile stages) 8 days after infestation.

[5] = system: Euschistus heros (Neotropical Brown Stink Bug); assay: Euschistus heros (Neotropical Brown Stink Bug), soybean leaves; settings: 120 h, application rate of 200 ppm, N2 nymphs on sprayed soybean leaves, 5 days after infestation, read-out: effect in at least one of the two categories (mortality or growth inhibition)
Experimental: Example B4: Euschistus heros (Neotropical Brown Stink Bug)
Soybean leaves on agar in 24-well microtiter plates were sprayed with aqueous test solutions prepared from 10′000 ppm DMSO stock solutions. After drying the leaves were infested with N2 nymphs. The samples were assessed for mortality and growth inhibition in comparison to untreated samples 5 days after infestation.

[6] = system: Myzus persicae (Green Peach Aphid); assay: Myzus persicae (Green Peach Aphid): feeding/contact activity, eggplant leaf discs; settings: foliar, 144 h, application rate of 200 ppm, mixed ages on sprayed eggplant leaf discs, 6 days after infestation, read-out: growth inhibition
Experimental: (§1) Example B12: Myzus persicae (Green Peach Aphid) Feeding/Contact Activity Eggplant leaf discs were placed onto agar in a 24-well microtiter plate and sprayed with aqueous test solutions prepared from 10′000 ppm DMSO stock solutions. After drying, the leaf discs were infested with an aphid population of mixed ages. The samples were assessed for mortality 6 days after infestation.

[7] = system: Diabrotica balteata (Corn Root Worm); assay: whole plant or invertebrate; settings: 96 h, application rate of 200 ppm, L2 larvae on sprayed maize sprouts, 4 days after infestation, read-out: effect in at least one of the two categories (mortality or growth inhibition)
Experimental: Example B3: Diabrotica balteata (Corn Root Worm)
Maize sprouts placed onto an agar layer in 24-well microtiter plates were treated with aqueous test solutions prepared from 10′000 ppm DMSO stock solutions by spraying. After drying, the plates were infested with L2 larvae (6 to 10 per well). The samples were assessed for mortality and growth inhibition in comparison to untreated samples 4 days after infestation.

Spodoptera littoralis = Spodoptera littoralis (Egyptian Cotton Leaf Worm), cotton leaf discs; settings: foliar, 72 h, application rate of 200 ppm, L1 larvae on sprayed cotton leaf discs, 3 days after infestation, read-out: control (at least one of mortality, anti-feedant effect, growth inhibition)
Experimental: Example B10: Spodoptera littoralis (Eaytian Cotton Leaf Worm)
Cotton leaf discs were placed onto agar in 24-well microtiter plates and sprayed with aqueous test solutions prepared from 10′000 ppm DMSO stock solutions. After drying the leaf discs were infested with five L1 larvae. The samples were assessed for mortality, anti-feeding effect, and growth inhibition in comparison to untreated samples 3 days after infestation. Control of Spodoptera littoralis by a test sample is given when at least one of the categories mortality, anti-feedant effect, and growth inhibition is higher than the untreated sample.

[8] = system: Myzus persicae (Green Peach Aphid); assay: Myzus persicae (Green Peach Aphid): feeding/contact activity, sunflower leaf discs; settings: foliar, 144 h, application rate of 200 ppm, mixed ages on sprayed sunflower leaf discs, 6 days after infestation, read-out: mortality
Experimental: Example B6: Myzus persicae (Green Peach Aphid): Feeding/Contact Activity
as §1, with “Sunflower” for “Example B12: Myzus persicae (Green Peach Aphid) Feeding/Contact Activity Eggplant”

[9] = system: Myzus persicae (Green Peach Aphid); assay: Myzus persicae (Green Peach Aphid): systemic activity, pea seedlings; settings: 144 h, test rate of 24 ppm, systemic, roots of infested pea seedlings in test solution, 6 days, read-out: mortality
Experimental: Example B7: Myzus persicae (Green Peach Aphid). Systemic Activity
Roots of pea seedlings infested with an aphid population of mixed ages were placed directly into aqueous test solutions prepared from 10′000 DMSO stock solutions. The samples were assessed for mortality 6 days after placing seedlings into test solutions.

[10] = system: Frankliniella occidentalis (Western Flower Thrips); assay: Frankliniella occidentalis (Western Flower Thrips): feeding/contact activity, sunflower leaf discs; settings: foliar, 168 h, application rate of 200 ppm, mixed ages on sprayed sunflower leaf discs, 7 days after infestation
Experimental: Example B5: Frankliniella occidentalis (Western Flower Thrips): Feeding/Contact Activity
Sunflower leaf discs were placed on agar in 24-well microtiter plates and sprayed with aqueous test solutions prepared from […] stock solutions. After drying the leaf discs were infested with a Frankliniella population of mixed ages. The samples were assessed for mortality 7 days after infestation.

COCN([C@@H](C)COc1cnc(Cl)c(C(=O)NCC(F)(F)F)c1)S(=O)(=O)C(F)(F)F [Compound P-63, 2-chloro-5-[(2S)-2-[methoxymethyl(trifluoromethylsulfonyl)amino]propoxy]-N-(2,2,2-trifluoroethyl)pyridine-3-carboxamide]
≥ 80%: percent control (mortality, anti-feedant effect or growth inhibition) at 200 ppm [1] | mortality at 12 ppm [2] | mortality at 200 ppm [3] | mortality at 200 ppm [4] | percent effect (mortality or growth inhibition) at 200 ppm [5]

C[C@@H](COc1cc(C(=O)NC2(C#N)CC2)c(Cl)nn1)NS(=O)(=O)C(F)(F)F [Compound P89, 3-chloro-N-(1-cyanocyclopropyl)-6-[(2S)-2-(trifluoromethylsulfonylamino)propoxy]pyridazine-4-carboxamide]
≥ 80%: inhibition at 200 ppm [6]

C[C@@H](COc1cnc(Cl)c(C(=O)NC2(C#N)CC2)c1)NS(=O)(=O)C(F)(F)F [Compound P-2, 2-chloro-N-(1-cyanocyclopropyl)-5-[(2S)-2-(trifluoromethylsulfonylamino)propoxy]pyridine-3-carboxamide]
≥ 80%: percent control (mortality, anti-feedant effect or growth inhibition) at 200 ppm [1] | percent effect (mortality or growth inhibition) at 200 ppm [7] | mortality at 12 ppm [2] | mortality at 200 ppm [3] | percent control (mortality, anti-feedant effect or growth inhibition) at 200 ppm (Spodoptera littoralis) | mortality at 200 ppm [8] | mortality at 24 ppm [9] | mortality at 200 ppm [10] | percent effect (mortality or growth inhibition) at 200 ppm [5]
